Experimental data as given in patent publication US20250170141A1, “MRGPRX2 MODULATORS AND RELATED METHODS OF TREATMENT” (Escient Pharmaceuticals, Inc., priority 2023, published 2025).

biological target: T1, human MRGPRX2 (Homo sapiens, UniProt Q96LB1); experiment: MRGPRX2 activity: IP-One Gq HTRF assay in CHO cells, antagonism versus 0.3 uM Cortistatin-14; type: cell-based; conditions: versus 0.3 uM Cortistatin-14 agonist, CHO cells expressing human MRGPRX2, read-out: MRGPRX2 Antagonist Activity
T1 construct: expressed in transfected cells; host or cells: CHO cells, stably transfected (G418 and Hygromycin B selection)
T1 sequence (Q96LB1 1-330): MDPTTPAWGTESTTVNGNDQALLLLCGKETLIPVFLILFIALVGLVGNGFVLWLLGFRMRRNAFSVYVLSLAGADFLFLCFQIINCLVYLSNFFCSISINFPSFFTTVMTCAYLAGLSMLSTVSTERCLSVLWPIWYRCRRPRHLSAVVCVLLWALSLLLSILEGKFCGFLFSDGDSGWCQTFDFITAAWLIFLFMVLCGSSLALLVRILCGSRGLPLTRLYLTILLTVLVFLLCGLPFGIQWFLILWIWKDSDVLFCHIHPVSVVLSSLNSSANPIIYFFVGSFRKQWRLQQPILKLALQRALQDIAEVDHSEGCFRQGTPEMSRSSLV
Protocol: CHO cells stably transfected to express human MRGPRX2 were maintained in an incubator at 37° C. with 5% CO2 and grown in F12 (HAM) media with 10% fetal bovine serum (FBS), 1% Glutamax, 1% penicillin/streptomycin, 800 μg/mL Geneticin (G418), and 300 μg/mL Hygromycin B.
Cells were plated in a 384-well assay plate at 20,000 cells per well in 12 μL of Opti-MEM and kept in an incubator overnight. On the day of the assay, compounds solubilized at 10 mM in DMSO were added as a 10-point curve (30 uM final top concentration with 1:3 serial dilutions) using a Tecan D300E digital dispenser. Agonists were diluted in assay buffer (final concentrations of 5.7 mM Tris-HCl, 43 mM NaCl, 50 mM LiCl, pH=8) and 2 μL of the agonist Cortistatin-14 (CPC Scientific, catalog CORT-002) are added to each well. Final concentrations of agonists were 0.3 μM Cortistatin. Final concentrations of DMSO were kept consistent across the plate. Plates were incubated in the dark for 1 h at 37° C. and then for 1 h at room temperature. IP-1 standards and HTRF detection reagents were added according to the IP-One—Gq Kit purchased from Cisbio (part number 62IPAPEJ) and incubated in the dark for 1 h at room temperature. The plate was read on a Molecular Devices SpectraMax iD5 plate reader. The HTRF ratio was calculated from the raw data and graphed using GraphPad Prism to calculate an IC50 value for each compound.
The activity ranges are denoted as follows: “+++++” denotes antagonist activity <100 nM; “++++” denotes antagonist activity between 100 and 500 nM; “+++” denotes activity between 501 and 1000 nM; “++” denotes activity between 1001 and 2500 nM; and “+” denotes activity >2500 nM.

Structure (SMILES)	IC50
Cc1nn(C)cc1C(C)c1c(F)ccc2c1NC(NCc1cccc(F)c1)=NS2(=O)=O (centres unmarked) [Compound 22-19, 5-(1-(1,3-dimethyl-1H-pyrazol-4-yl)ethyl)-6-fluoro-3-((3-fluorobenzyl)amino)-4H-benzo[e][1,2,4]thiadiazine 1,1-dioxide]	< 100 nM
CC(c1ccccc1F)c1c(F)ccc2c1NC(NCc1cccc(Cl)c1F)=NS2(=O)=O (centres unmarked) [Compound 9-2, 3-((3-chloro-2-fluorobenzyl)amino)-6-fluoro-5-(1-(2-fluorophenyl)ethyl)-4H-benzo[e][1,2,4]thiadiazine 1,1-dioxide]	< 100 nM
CC(c1ccc(Oc2ccccc2)cc1)c1c(F)ccc2c1NC(NCc1cccc(F)c1)=NS2(=O)=O (centres unmarked) [Compound 22-15, 6-fluoro-3-((3-fluorobenzyl)amino)-5-(1-(4-phenoxyphenyl)ethyl)-4H-benzo[e][1,2,4]thiadiazine 1,1-dioxide]	501 to 1000 nM
O=S1(=O)N=C(NCc2ncccc2F)Nc2c(Oc3ccccc3Cl)c(Cl)cc(F)c21 [Compound 1-42, 6-chloro-5-(2-chlorophenoxy)-8-fluoro-3-(((3-fluoropyridin-2-yl)methyl)amino)-4H-benzo[e][1,2,4]thiadiazine 1,1-dioxide]	100 to 500 nM
O=S1(=O)N=C(NCc2ncccc2F)Nc2c1ccc(F)c2Cc1ccccc1Cl [Compound 4-1, 5-(2-chlorobenzyl)-6-fluoro-3-(((3-fluoropyridin-2-yl)methyl)amino)-4H-benzo[e][1,2,4]thiadiazine 1,1-dioxide]	< 100 nM
COc1cccnc1CNC1=NS(=O)(=O)c2cc(F)c(F)c(Oc3ccccc3Cl)c2N1 [Compound 1-7, 5-(2-chlorophenoxy)-6,7-difluoro-3-(((3-methoxypyridin-2-yl)methyl)amino)-4H-benzo[e][1,2,4]thiadiazine 1,1-dioxide]	100 to 500 nM
O=S1(=O)N=C(NCc2ncccc2F)Nc2c1ccc(F)c2Oc1c(Cl)cccc1Cl [Compound 1-9, 5-(2,6-dichlorophenoxy)-6-fluoro-3-(((3-fluoropyridin-2-yl)methyl)amino)-4H-benzo[e][1,2,4]thiadiazine 1,1-dioxide]	< 100 nM
O=S1(=O)N=C(NCc2ncccc2F)Nc2c1cc(F)c(Cl)c2Oc1ccccc1Cl [Compound 1-48, 6-chloro-5-(2-chlorophenoxy)-7-fluoro-3-(((3-fluoropyridin-2-yl)methyl)amino)-4H-benzo[e][1,2,4]thiadiazine 1,1-dioxide]	< 100 nM
[2H]c1ccc2c(c1[C@H](C)c1ccccc1F)NC(NCc1ncccc1F)=NS2(=O)=O [Compound 23-1, (S)-5-(1-(2-fluorophenyl)ethyl)-3-(((3-fluoropyridin-2-yl)methyl)amino)-4H-benzo[e][1,2,4]thiadiazine 1,1-dioxide-6-d]	< 100 nM
O=S1(=O)N=C(NCc2ncccc2F)Nc2c(/C=C/c3ccccc3F)cccc21 [Compound 14-3, (E)-3-(((3-fluoropyridin-2-yl)methyl)amino)-5-(2-fluorostyryl)-4H-benzo[e][1,2,4]thiadiazine 1,1-dioxide]	< 100 nM
CC(c1ccccc1F)c1c(F)ccc2c1NC(NCc1ccc(F)c(Cl)c1)=NS2(=O)=O (centres unmarked) [Compound 7-7, 3-((3-chloro-4-fluorobenzyl)amino)-6-fluoro-5-(1-(2-fluorophenyl)ethyl)-4H-benzo[e][1,2,4]thiadiazine 1,1-dioxide]	< 100 nM
CC(c1ccc(F)cc1F)c1c(F)ccc2c1NC(NCc1cccc(F)c1)=NS2(=O)=O (centres unmarked) [Compound 22-25, 5-(1-(2,4-difluorophenyl)ethyl)-6-fluoro-3-((3-fluorobenzyl)amino)-4H-benzo[e][1,2,4]thiadiazine 1,1-dioxide]	< 100 nM
O=S1(=O)N=C(NCc2ccccc2C(F)(F)F)Nc2c1cc(F)c(F)c2Cc1ccccc1Cl [Compound 4-16, 5-(2-chlorobenzyl)-6,7-difluoro-3-((2-(trifluoromethyl)benzyl)amino)-4H-benzo[e][1,2,4]thiadiazine 1,1-dioxide]	100 to 500 nM
COCCNC1=NS(=O)(=O)c2cccc(C(=O)c3ccccc3Cl)c2N1 [Compound 16-3, (2-chlorophenyl)(3-((2-methoxyethyl)amino)-1,1-dioxido-4H-benzo[e][1,2,4]thiadiazin-5-yl)methanone]	1000 to 2500 nM
Cc1cc(C(C)c2c(F)ccc3c2NC(NCc2cccc(F)c2)=NS3(=O)=O)ccn1 (centres unmarked) [Compound 22-21, 6-fluoro-3-((3-fluorobenzyl)amino)-5-(1-(2-methylpyridin-4-yl)ethyl)-4H-benzo[e][1,2,4]thiadiazine 1,1-dioxide]	< 100 nM
CC(c1ccccc1F)c1c(F)ccc2c1NC(NCc1cc(Cl)cc(Cl)c1)=NS2(=O)=O (centres unmarked) [Compound 7-8, 3-((3,5-dichlorobenzyl)amino)-6-fluoro-5-(1-(2-fluorophenyl)ethyl)-4H-benzo[e][1,2,4]thiadiazine 1,1-dioxide]	< 100 nM

Results, then the molecule that gave them:

IC50	Structure (SMILES)
< 100 nM	O=S1(=O)N=C(NCc2cnccc2Cl)Nc2c(Cc3ccccc3Cl)cccc21 [Compound 12-32, 5-(2-chlorobenzyl)-3-(((4-chloropyridin-3-yl)methyl)amino)-4H-benzo[e][1,2,4]thiadiazine 1,1-dioxide]
100 to 500 nM	O=S1(=O)N=C(NCc2ncccc2F)Nc2c1ccc(F)c2CCc1ccccc1 [Compound 6-1, 6-fluoro-3-(((3-fluoropyridin-2-yl)methyl)amino)-5-phenethyl-4H-benzo[e][1,2,4]thiadiazine 1,1-dioxide]
100 to 500 nM	O=S1(=O)N=C(NCc2ccccc2F)Nc2c(Cc3ccc(Cl)cc3)cccc21 [Compound 6-13, 5-(4-chlorobenzyl)-3-((2-fluorobenzyl)amino)-4H-benzo[e][1,2,4]thiadiazine 1,1-dioxide]
< 100 nM	O=S1(=O)N=C(NCc2ccccc2F)Nc2c(Cc3ccccc3Cl)cccc21 [Compound 6-2, 5-(2-chlorobenzyl)-3-((2-fluorobenzyl)amino)-4H-benzo[e][1,2,4]thiadiazine 1,1-dioxide]
< 100 nM	O=S1(=O)N=C(NCc2ccccc2F)Nc2c(Cc3ccccc3)cccc21 [Compound 6-3, 5-benzyl-3-((2-fluorobenzyl)amino)-4H-benzo[e][1,2,4]thiadiazine 1,1-dioxide]
< 100 nM	O=S1(=O)N=C(NCc2ccccc2F)Nc2c(C3(c4ccccc4)CC3)cccc21 [Compound 6-19, 3-((2-fluorobenzyl)amino)-5-(1-phenylcyclopropyl)-4H-benzo[e][1,2,4]thiadiazine 1,1-dioxide]
< 100 nM	O=S1(=O)N=C(NCc2ccccc2F)Nc2c(CCc3ccccc3)cccc21 [Compound 6-18, 3-((2-fluorobenzyl)amino)-5-phenethyl-4H-benzo[e][1,2,4]thiadiazine 1,1-dioxide]
< 100 nM	O=C(c1ccccc1Cl)c1cccc2c1NC(NCc1ccccc1F)=NS2(=O)=O [Compound 16-2, (2-chlorophenyl)(3-((2-fluorobenzyl)amino)-1,1-dioxido-4H-benzo[e][1,2,4]thiadiazin-5-yl)methanone]
< 100 nM	COc1ccccc1CNC1=NS(=O)(=O)c2cccc(Cc3ccccc3Cl)c2N1 [Compound 12-24, 5-(2-chlorobenzyl)-3-((2-methoxybenzyl)amino)-4H-benzo[e][1,2,4]thiadiazine 1,1-dioxide]
< 100 nM	O=S1(=O)N=C(NCc2cccc(F)c2)Nc2c1ccc(F)c2Oc1ccccc1Cl [Compound 1-11, 5-(2-chlorophenoxy)-6-fluoro-3-((3-fluorobenzyl)amino)-4H-benzo[e][1,2,4]thiadiazine 1,1-dioxide]
< 100 nM	CC(c1ccccc1F)c1c(F)ccc2c1NC(NCc1ccccc1)=NS2(=O)=O (centres unmarked) [Compound 7-4, 3-(benzylamino)-6-fluoro-5-(1-(2-fluorophenyl)ethyl)-4H-benzo[e][1,2,4]thiadiazine 1,1-dioxide]
< 100 nM	O=S1(=O)N=C(NCc2cccnc2Cl)Nc2c(Cc3ccccc3Cl)cccc21 [Compound 12-18, 5-(2-chlorobenzyl)-3-(((2-chloropyridin-3-yl)methyl)amino)-4H-benzo[e][1,2,4]thiadiazine 1,1-dioxide]
< 100 nM	O=S1(=O)N=C(NCc2ccccc2F)Nc2c(Cc3ccc(F)cc3)cccc21 [Compound 6-14, 5-(4-fluorobenzyl)-3-((2-fluorobenzyl)amino)-4H-benzo[e][1,2,4]thiadiazine 1,1-dioxide]
